# Experiments:
# Type in all cases: functional, cell-based
# [1] = system: MDA-MB-468; test: Cytotoxicity against human MDA-MB-468 cells assessed as growth inhibition after 72 hrs by SRB assay
# [2] = system: MDA-MB-231; test: Cytotoxicity against human MDA-MB-231 cells assessed as growth inhibition after 72 hrs by SRB assay
# [3] = system: HCC70; test: Cytotoxicity against human HCC70 cells assessed as growth inhibition after 72 hrs by SRB assay
# [4] = system: BT-549; test: Cytotoxicity against human BT549 cells assessed as growth inhibition after 72 hrs by SRB assay
Structure (SMILES),IC50 ([1]; mda-mb-468),IC50 ([2]; mda-mb-231),IC50 ([3]; hcc70),IC50 ([4]; bt-549),"IC50 ([1]; Homo sapiens, MDA-MB-468, 72 h)","IC50 ([2]; Homo sapiens, MDA-MB-231, 72 h)","IC50 ([3]; Homo sapiens, HCC70, 72 h)","IC50 ([4]; Homo sapiens, BT-549, 72 h)"
CC1=C[C@H]2O[C@@H]3C[C@@H](OC(=O)/C=C\C=C\[C@@H](OCCC4=CC(=O)OC4)[C@@H](C)O)[C@](C)([C@@]2(CO)CC1)[C@@]31CO1,> 10000 nM,> 10000 nM,> 10000 nM,> 10000 nM,–,–,–,–
CC1=C[C@H]2O[C@@H]3C[C@@H](OC(=O)/C=C\C=C\[C@]4([C@H](C)O)OCC/C(=C\C(=O)O)[C@@H]4O)[C@](C)([C@@]2(CO)CC1)[C@@]31CO1,> 10000 nM,3600 nM,7700 nM,1800 nM,–,–,–,–
CC1=C[C@H]2O[C@@H]3C[C@H]4OC(=O)/C=C\C=C\[C@]5([C@H](C)O)OCC/C(=C\C(=O)OC[C@@]2(CC1)[C@]4(C)[C@@]31CO1)[C@H]5O,3400 nM,2000 nM,2200 nM,1800 nM,–,–,–,–
CC1=C[C@H]2O[C@@H]3C[C@H]4OC(=O)/C=C\C=C\[C@]5([C@H](C)O)OCC/C(=C\C(=O)OC[C@@]2(CC1)[C@]4(C)[C@@]31CO1)[C@@H]5O,3 nM,0.4 nM,1 nM,0.3 nM,–,–,–,–
CC1=C[C@H]2O[C@@H]3C[C@@H](OC(=O)/C=C\C=C\[C@@H](OCCC4=CC(=O)OC4)[C@@H](C)O)[C@](C)([C@@]2(COC(=O)/C=C(\C)CCO)CC1)[C@@]31CO1,80 nM,20 nM,20 nM,4 nM,–,–,–,–
C/C1=C\C(=O)OC[C@@]23CC[C@](C)(O)[C@H]4C[C@@]5(O)[C@@H](C[C@@H](OC(=O)/C=C\C=C\[C@H]([C@@H](C)O)OCC1)[C@]25C)O[C@H]43,–,–,–,–,> 10000 nM,> 10000 nM,> 10000 nM,> 10000 nM
COC(=O)/C=C/C=C/[C@@H](OCC/C(C)=C/C(=O)OC[C@]12CCC(C)=C[C@H]1O[C@@H]1C[C@@H](O)[C@@]2(C)[C@@]12CO2)[C@@H](C)O,> 10000 nM,> 10000 nM,> 10000 nM,> 10000 nM,–,–,–,–
COc1cccc2c1C(=O)c1c(O)c3c(c(O)c1C2=O)C[C@@](O)(C(=O)CO)C[C@@H]3O[C@H]1C[C@H](N)[C@H](O)[C@H](C)O1 [DOXORUBICIN],–,–,–,–,70 nM,80 nM,50 nM,10 nM
COc1cc([C@@H]2c3cc4c(cc3[C@@H](O[C@@H]3O[C@@H]5CO[C@@H](C)O[C@H]5[C@H](O)[C@H]3O)[C@H]3COC(=O)[C@H]23)OCO4)cc(OC)c1O [ETOPOSIDE],–,–,–,–,2100 nM,2300 nM,1800 nM,1800 nM
CC1=C[C@H]2O[C@@H]3C[C@H]4OC(=O)/C=C\C=C\[C@H]([C@@H](C)O)OCC/C(C)=C/C(=O)OC[C@@]2(CC1)[C@]4(C)[C@]31CO1 [RORIDIN E],0.05 nM,0.03 nM,0.02 nM,0.02 nM,–,–,–,–

# Source: ChEMBL document CHEMBL4371018, “Macrocyclic Trichothecene Mycotoxins from a Deadly Poisonous Mushroom, Podostroma cornu-damae” (J Nat Prod, 2019)
